Holding throughout (assay): Bacterial susceptibility testing, MIC by broth microdilution (CLSI)
Format in all cases: cell-based

One assay concerns K. pneumoniae ATCC13883. The note with it: 35° C., 18-24 h; for MIC: Klebsiella pneumoniae, ATCC13883, broth microdilution, read-out: MIC K. pneumoniae ATCC13883. On the procedure:
(§1) Minimal inhibitory concentrations (MIC) were determined by the broth microdilution method in accordance with the Clinical and Laboratory Standards Institute (CLSI) guidelines. In brief, organism suspensions were adjusted to a final inoculum between 3×10^5 and 7×10^5 colony-forming units (CFU)/mL. Drug dilutions and inocula were made in sterile, cation adjusted Mueller-Hinton Broth (Beckton Dickinson). In wells, an inoculum volume of 100 μL was mixed to 2 μL of DMSO with 2-fold serial dilutions of drug. All inoculated microdilution trays were incubated in ambient air at 35° C. for 18-24 h. Following incubation, the lowest concentration of the drug that prevented visible growth (OD600 nm<0.05) was recorded as the MIC. Performance of the assay was monitored by the use of laboratory quality-control strains and compounds with defined MIC spectrum, in accordance with CLSI guidelines.

Another assay deals with P. aeruginosa 209 PAO1. The conditions noted are these: Pseudomonas aeruginosa, PAO1, broth microdilution, 35° C., 18-24 h; read-out: MIC P. aeruginosa 209 PAO1. The protocol: as §1
The next assay has as its system P. aeruginosa ATCC27835. The note with it: Pseudomonas aeruginosa, ATCC27835, broth microdilution, 35° C., 18-24 h; read-out: MIC P. aeruginosa ATCC27835. The protocol: as §1
For orientation: Dilution methods test growth across graded concentrations, often in twofold steps.

In another assay the test system is E. coli ATCC25922. The conditions noted are these: 35° C., 18-24 h; for MIC: Escherichia coli, ATCC25922, broth microdilution, read-out: MIC E. coli ATCC25922. The protocol: as §1

Experimental findings from patent publication US20240150298A1, “ANTIBACTERIAL COMPOUNDS” (Blacksmith Medicines, Inc., priority 2021, published 2024) are described below.

In brackets after ≈: the same amount, converted by molar mass.

Regarding `C[C@H](O)c1nccn1[C@@H](/C=C/c1ccc(-c2ccc(C3C[C@H]3OCC(N)CO)cc2)cc1)CO` (stereo partly drawn) [Compound 72, (2S,E)-4-(4′-((1S,2R)-2-(2-amino-3-hydroxypropoxy)cyclopropyl)-[1,1′-biphenyl]-4-yl)-2-(2-((S)-1-hydroxyethyl)-1H-imidazol-1-yl)but-3-en-1-ol], the MIC worked out at 8 µg/mL (≈ 17.3 µM) in the assay with K. pneumoniae ATCC13883, 2 µg/mL (≈ 4.31 µM) in the assay with P. aeruginosa 209 PAO1, 2 µg/mL (≈ 4.31 µM) in the assay with P. aeruginosa ATCC27835 and 2 µg/mL (≈ 4.31 µM) with E. coli ATCC25922.
As to `C[C@H](O)c1nccn1[C@@H](/C=C/c1ccc(-c2ccc(O[C@H]3C[C@@H]3N)cc2)cc1)CO` (racemic) [Compound 13, (S,E)-4-(4′-((trans)-2-aminocyclopropoxy)-[1,1′-biphenyl]-4-yl)-2-(2-((S)-1-hydroxyethyl)-1H-imidazol-1-yl)but-3-en-1-ol], the minimal inhibitory concentration (MIC) in the assay on K. pneumoniae ATCC13883 came to 4 µg/mL (≈ 9.86 µM); in the assay with P. aeruginosa 209 PAO1, 2 µg/mL (≈ 4.93 µM); in the assay on P. aeruginosa ATCC27835, 16 µg/mL (≈ 39.5 µM); in the assay with E. coli ATCC25922, 4 µg/mL (≈ 9.86 µM).
Consider `C[C@H](O)c1nccn1[C@@H](/C=C/c1ccc(-c2ccc(OC[C@H](O)CO)cc2)cc1)CO` [Compound 23, (R)-3-((4′-((S,E)-4-hydroxy-3-(2-((S)-1-hydroxyethyl)-1H-imidazol-1-yl)but-1-en-1-yl)-[1,1′-biphenyl]-4-yl)oxy)propane-1,2-diol], for which the MIC was determined as 16 µg/mL (≈ 37.7 µM) in the assay with K. pneumoniae ATCC13883, 4 µg/mL (≈ 9.42 µM) in the assay with P. aeruginosa 209 PAO1, 4 µg/mL (≈ 9.42 µM) with P. aeruginosa ATCC27835 and 8 µg/mL (≈ 18.8 µM) with E. coli ATCC25922.
Take `C[C@H](O)c1nccn1[C@@H](/C=C/c1ccc(-c2ccc(CO[C@H]3C[C@H]3N)cc2)cc1)CO` (racemic) [Compound 16, (S,E)-4-(4′-(((cis)-2-aminocyclopropoxy)methyl)-[1,1′-biphenyl]-4-yl)-2-(2-((S)-1-hydroxyethyl)-1H-imidazol-1-yl)but-3-en-1-ol]: the minimum inhibitory concentration (MIC) was 8 µg/mL (≈ 19.1 µM) with K. pneumoniae ATCC13883, 2 µg/mL (≈ 4.77 µM) in the assay on P. aeruginosa 209 PAO1, 4 µg/mL (≈ 9.53 µM) with P. aeruginosa ATCC27835 and 2 µg/mL (≈ 4.77 µM) in the assay with E. coli ATCC25922.
With `C[C@H](O)c1nccn1[C@@H](/C=C/c1ccc(-c2ccc(OCCC(O)CO)cc2)cc1)CO` (mixture of isomers) [Compound 43, 4-((4′-((S,E)-4-hydroxy-3-(2-((S)-1-hydroxyethyl)-1H-imidazol-1-yl)but-1-en-1-yl)-[1,1′-biphenyl]-4-yl)oxy)butane-1,2-diol], the MIC in the assay with K. pneumoniae ATCC13883, in the assay with P. aeruginosa 209 PAO1 and with P. aeruginosa ATCC27835 was 2 µg/mL (≈ 4.56 µM) in each case.
For `C[C@H](O)c1nccn1[C@@H](/C=C/c1ccc(-c2ccc(OCC(N)(CO)CO)cc2)cc1)CO` [Compound 74, 2-amino-2-(((4′-((S,E)-4-hydroxy-3-(2-((S)-1-hydroxyethyl)-1H-imidazol-1-yl)but-1-en-1-yl)-[1,1′-biphenyl]-4-yl)oxy)methyl)propane-1,3-diol], the MIC in the assay on K. pneumoniae ATCC13883 was more than 32 µg/mL; with P. aeruginosa 209 PAO1, 2 µg/mL (≈ 4.41 µM); with P. aeruginosa ATCC27835, 1 µg/mL (≈ 2.2 µM); in the assay on E. coli ATCC25922, 8 µg/mL (≈ 17.6 µM).
Consider `C[C@H](O)c1nccn1[C@@H](/C=C/c1ccc(-c2ccc(C3CC(NCC#N)C3)cc2F)cc1)CO` (stereo partly drawn) [Compound 75, 2-((3-(2-fluoro-4′-((S,E)-4-hydroxy-3-(2-((S)-1-hydroxyethyl)-1H-imidazol-1-yl)but-1-en-1-yl)-[1,1′-biphenyl]-4-yl)cyclobutyl)amino)acetonitrile], for which the MIC in the assay on K. pneumoniae ATCC13883 was 0.5 µg/mL (≈ 1.09 µM); in the assay with P. aeruginosa 209 PAO1 it was 2 µg/mL (≈ 4.34 µM); with P. aeruginosa ATCC27835 it was 4 µg/mL (≈ 8.69 µM); in the assay with E. coli ATCC25922 it was 0.25 µg/mL (≈ 0.543 µM).
Taken in the same sequence, the figures for `C[C@H](O)c1nccn1[C@@H](/C=C/c1ccc(-c2ccc(C3CC(CNC(C#N)CO)C3)cc2)cc1)CO` (stereo partly drawn) [Compound 59, 3-hydroxy-2-(((3-(4′-((S,E)-4-hydroxy-3-(2-((S)-1-hydroxyethyl)-1H-imidazol-1-yl)but-1-en-1-yl)-[1,1′-biphenyl]-4-yl)cyclobutyl)methyl)amino)propane nitrile] were 4 µg/mL (≈ 8.22 µM), 2 µg/mL (≈ 4.11 µM), 4 µg/mL (≈ 8.22 µM) and 2 µg/mL (≈ 4.11 µM).
For the compound `C[C@H](O)c1nccn1[C@@H](/C=C/c1ccc(-c2ccc(OC3CN(CCO)C3)cc2)cc1)CO` [Compound 20, (S,E)-2-(2-((S)-1-hydroxyethyl)-1H-imidazol-1-yl)-4-(4′-((1-(2-hydroxyethyl)azetidin-3-yl)oxy)-[1,1′-biphenyl]-4-yl)but-3-en-1-ol], the values for the MIC in the assay on P. aeruginosa 209 PAO1, in the assay on P. aeruginosa ATCC27835 and with E. coli ATCC25922 were 2 µg/mL (≈ 4.45 µM), 2 µg/mL (≈ 4.45 µM) and 4 µg/mL (≈ 8.9 µM), respectively.
With `C[C@H](O)c1nccn1C/C=C/c1ccc(-c2ccc(OCC3(N)CC3)cc2)cc1` [Compound 7, (S,E)-1-(1-(3-(4′-((1-aminocyclopropyl)methoxy)-[1,1′-biphenyl]-4-yl)allyl)-1H-imidazol-2-yl)ethan-1-ol], the MIC in the assay with K. pneumoniae ATCC13883 came out at 0.25 µg/mL (≈ 0.642 µM); with P. aeruginosa 209 PAO1, 2 µg/mL (≈ 5.13 µM); in the assay with P. aeruginosa ATCC27835, 4 µg/mL (≈ 10.3 µM); in the assay on E. coli ATCC25922 it was 0.25 µg/mL (≈ 0.642 µM).
As to `C[C@H](O)c1nccn1[C@@H](/C=C/c1ccc(-c2ccc(C3CC(CNCc4noc(C(N)=O)n4)C3)cc2)cc1)CO` (stereo partly drawn) [Compound 57, 3-((((3-(4′-((S,E)-4-hydroxy-3-(2-((S)-1-hydroxyethyl)-1H-imidazol-1-yl)but-1-en-1-yl)-[1,1′-biphenyl]-4-yl)cyclobutyl)methyl)amino)methyl)-1,2,4-oxadiazole-5-carboxamide], the minimal inhibitory concentration (MIC) with K. pneumoniae ATCC13883 is 1 µg/mL (≈ 1.84 µM); in the assay on P. aeruginosa 209 PAO1, 4 µg/mL (≈ 7.37 µM); with P. aeruginosa ATCC27835, 4 µg/mL (≈ 7.37 µM); with E. coli ATCC25922, 0.25 µg/mL (≈ 0.461 µM).
As to `C[C@H](O)c1nccn1[C@@H](/C=C/c1ccc(-c2ccc(C3CC(NCc4cocn4)C3)cc2)cc1)CO` (stereo partly drawn) [Compound 40, (S,E)-2-(2-((S)-1-hydroxyethyl)-1H-imidazol-1-yl)-4-(4′-(3-((oxazol-4-ylmethyl)amino)cyclobutyl)-[1,1′-biphenyl]-4-yl)but-3-en-1-ol], the MIC in the assay with K. pneumoniae ATCC13883 worked out at 1 µg/mL (≈ 2.06 µM); in the assay with P. aeruginosa 209 PAO1 it was 2 µg/mL (≈ 4.13 µM); in the assay on P. aeruginosa ATCC27835 it was 2 µg/mL (≈ 4.13 µM).
On to `C[C@H](O)c1nccn1C/C=C/c1ccc(-c2ccc(OCCN3CC(CN)C3)cc2)cc1` [Compound 6, (S,E)-1-(1-(3-(4′-(2-(3-(aminomethyl)azetidin-1-yl)ethoxy)-[1,1′-biphenyl]-4-yl)allyl)-1H-imidazol-2-yl)ethan-1-ol], for which the minimal inhibitory concentration (MIC) was 16 µg/mL (≈ 37 µM) in the assay on K. pneumoniae ATCC13883, 4 µg/mL (≈ 9.25 µM) in the assay on P. aeruginosa 209 PAO1, 4 µg/mL (≈ 9.25 µM) with P. aeruginosa ATCC27835 and 4 µg/mL (≈ 9.25 µM) with E. coli ATCC25922.
In the case of `C[C@H](O)c1nccn1[C@@H](/C=C/c1ccc(-c2ccc(C3CC(NC(C#N)CO)C3)cc2)cc1)CO` (stereo partly drawn) [Compound 41, 3-hydroxy-2-((3-(4′-((S,E)-4-hydroxy-3-(2-((S)-1-hydroxyethyl)-1H-imidazol-1-yl)but-1-en-1-yl)-[1,1′-biphenyl]-4-yl)cyclobutyl)amino)propanenitrile], the MIC with K. pneumoniae ATCC13883, in the assay with P. aeruginosa 209 PAO1 and in the assay with P. aeruginosa ATCC27835 was 2 µg/mL (≈ 4.23 µM) throughout.
Turning to `C[C@H](O)c1nccn1[C@@H](/C=C/c1ccc(-c2ccc(C3CC3OC(CO)CO)cc2)cc1)CO` (stereo partly drawn) [Compound 70, 2-(2-(4′-((S,E)-4-hydroxy-3-(2-((S)-1-hydroxyethyl)-1H-imidazol-1-yl)but-1-en-1-yl)-[1,1′-biphenyl]-4-yl)cyclopropoxy)propane-1,3-diol], the MIC with K. pneumoniae ATCC13883 was 8 µg/mL (≈ 17.2 µM); with P. aeruginosa 209 PAO1, 4 µg/mL (≈ 8.61 µM); in the assay on P. aeruginosa ATCC27835, 4 µg/mL (≈ 8.61 µM); with E. coli ATCC25922, 2 µg/mL (≈ 4.31 µM).
As to `C[C@H](O)c1nccn1[C@@H](/C=C/c1ccc(-c2ccc(OCC(N)CO)cc2)cc1)CO` (mixture of isomers) [Compound 8, (2S,E)-4-(4′-(2-amino-3-hydroxypropoxy)-[1,1′-biphenyl]-4-yl)-2-(2-((S)-1-hydroxyethyl)-1H-imidazol-1-yl)but-3-en-1-ol], the “MIC K. pneumoniae ATCC13883” value against K. pneumoniae ATCC13883 (broth microdilution) is 64 µg/mL (≈ 151 µM). Moreover, the minimum inhibitory concentration (MIC) with P. aeruginosa 209 PAO1 and with P. aeruginosa ATCC27835 was 4 µg/mL (≈ 9.44 µM) in each case. Moreover, the “MIC E. coli ATCC25922” value with E. coli ATCC25922 (broth microdilution) is 16 µg/mL (≈ 37.8 µM).
In the case of `CC(=O)O[C@@H]1C[C@H]1c1ccc(-c2ccc(/C=C/[C@@H](CO)n3ccnc3[C@H](C)O)cc2)cc1` [Compound 69, (1R,2S)-2-(4′-((S,E)-4-hydroxy-3-(2-((S)-1-hydroxyethyl)-1H-imidazol-1-yl)but-1-en-1-yl)-[1,1′-biphenyl]-4-yl)cyclopropyl acetate], the minimal inhibitory concentration (MIC) was found to be 0.5 µg/mL in the assay on K. pneumoniae ATCC13883, 2 µg/mL in the assay with P. aeruginosa 209 PAO1, 4 µg/mL in the assay with P. aeruginosa ATCC27835 and 0.25 µg/mL in the assay on E. coli ATCC25922.
With `C[C@H](O)c1nccn1[C@@H](/C=C/c1ccc(-c2ccc(O[C@@H]3C[C@H]3N)cc2)cc1)CO` (single isomer, unassigned) [Compound 15], the figures for the MIC with P. aeruginosa 209 PAO1, in the assay with P. aeruginosa ATCC27835 and in the assay on E. coli ATCC25922 were 0.5 µg/mL (≈ 1.23 µM), 2 µg/mL (≈ 4.93 µM) and 0.5 µg/mL (≈ 1.23 µM), respectively.
Regarding `C[C@H](O)c1nccn1[C@@H](/C=C/c1ccc(-c2ccc(C3CC(NCc4ncon4)C3)cc2)cc1)CO` (stereo partly drawn) [Compound 42, (S,E)-4-(4′-(3-(((1,2,4-oxadiazol-3-yl)methyl)amino)cyclobutyl)-[1,1′-biphenyl]-4-yl)-2-(2-((S)-1-hydroxyethyl)-1H-imidazol-1-yl)but-3-en-1-ol], the figures for the minimal inhibitory concentration (MIC) in the assay on K. pneumoniae ATCC13883, in the assay on P. aeruginosa 209 PAO1 and in the assay with P. aeruginosa ATCC27835 were 0.5 µg/mL (≈ 1.03 µM), 4 µg/mL (≈ 8.24 µM) and 4 µg/mL (≈ 8.24 µM), respectively.
Turning to `C[C@H](O)c1nccn1[C@@H](/C=C/c1ccc(-c2ccc(OC[C@H](N)CO)cc2)cc1)CO` (single isomer, unassigned) [Compound 9], the minimum inhibitory concentration (MIC) in the assay with P. aeruginosa 209 PAO1 and in the assay on P. aeruginosa ATCC27835 was 2 µg/mL (≈ 4.72 µM) in each case.

As usually defined, the MIC is the least concentration at which growth counts as inhibited.
